The text below walks through data of patent publication US10203334B2, “Methods and compositions related to nucleic acid binding assays” (Nubad, LLC, priority 2012, dated 2019).

This assay has as its system 16S A-site rRNA (SEQ ID No. 1). The assay can be described thus: Competition dialysis. Type of assay: binding, E. coli. To be noted: 100 nM ligand, 72 h dialysis, pH 7.0. The text has this: Disclosed is the use of fluorescent aminosugar probes such as F-neo (42a) to probe a variety of nucleic acid targets. Competition dialysis was used as a nucleic acid screening technique to illustrate the binding of F-neo (42a) to different nucleic acid structures.
Competition dialysis studies using a fluorescein-neomycin conjugate (F-neo (42a)). […] Comparative binding of F-neo (42a) to 13 different nucleic acid structures was examined which included single strand nucleic acids [poly(dT), poly(A), poly(U)], duplexes [poly(dA).poly(dT), poly(rA).poly(dT), poly(rA).poly(rU), poly(dA).poly(rU), poly(dG).poly(dC), calf thymus], triplexes [poly(dA).2poly(dT), poly(rA).2poly(rU)], i-motif (polydC) and 16S A-site rRNA (SEQ ID No. 1). The amount of F-neo (42a) bound to each nucleic acid is shown as a bar graph in FIG. 13. Because all nucleic acids are dialyzed simultaneously in the same ligand solution, the amount of bound F-neo (42a) is directly proportional to its affinity for each nucleic acid. […] 200 μL of different nucleic acids (7.5 μM per monomeric unit of each polymer) was dialyzed for 72 h with 400 mL 100 nM ligand in 6 mM Na2HPO4, 2 mM NaH2PO4, 1 mM Na2EDTA, pH 7.0 and various Na+ concentrations as indicated.
F-neo (42a) prefers to bind to 16S A-site rRNA yielding a bound ligand concentration of 85 nM in 100 mM Na^+, 50 nM in 150 mM Na^+, and 15 nM in 200 mM Na^+ is shown in FIG. 15.

As to `NCC1O[C@H](OC2C(O)C(OC3C(O)[C@H](N)CC(N)[C@H]3O[C@H]3OC(CN)[C@@H](O)C(O)C3N)O[C@@H]2CSCCNC(=O)CCSCC(=O)Nc2ccc(-c3c4ccc(=O)cc-4oc4cc(O)ccc34)c(C(=O)O)c2)C(N)C(O)[C@@H]1O` (stereo partly drawn) [F-neo (42a), Neomycin-Fluorescein Conjugate], the bound ligand concentration is, setting by setting: (100 mM Na^+) 85 nM; (150 mM Na^+) 50 nM; (200 mM Na^+) 15 nM.
